Source: paper PMC10458458, “Characterization of Anticancer Effects of the Analogs of DJ4, a Novel Selective Inhibitor of ROCK and MRCK Kinases” (Pharmaceuticals, 2023)

Experiments:
[1] = molecular target: T1, CDK9 (Homo sapiens, UniProt P50750); test: KINOMEscan competition binding assay; conditions: CDK9, 10 µM
T1 construct: purchased DiscoverX Corporation (Lead Hunter Discovery Services, KINOMEscan)
Description: (§1) To examine specificity of DJ4 to different human kinases, we performed a KINOMEscan profiling assay (DiscoverX, Fremont, CA, USA). The KINOMEscan assay consists of a panel of more than 480 kinases of different classes (TK/TKL/STE/CK1/AGC/CAMK/CMGC/others), including clinically relevant mutants, atypical kinases, lipid, and pathogen kinases. […] However, we also recognized the limitations of DJ4 that preclude its clinical development and the need for further optimization of the DJ4 chemotype.
(§2) The KINOMEscan®, in vitro competition binding assay, was performed by Lead Hunter Discovery Services (DiscoverX Corporation, Fremont, CA, USA) to determine the kinase specificity of DJ4, a novel kinase inhibitor [19, 44]. The KINOMEscan® panel consists of more than 480 kinases, including clinically relevant mutants, lipid, atypical, and pathogen kinases, plus a growing panel of activation-state specific assays. The primary screen was performed using a single concentration of 10 µM, and the results for DJ4 binding interactions are reported as percent of control (%Ctrl). The %Ctrl is calculated as follows: [(DJ4 signal-positive control signal)/(negative control DMSO signal-positive control signal)] x […]. The human kinome tree annotation for DJ4 is plotted with Reaction Biology’s Kinase Mapper and KinMap web interface tool http://kinhub.org/kinmap (accessed on 09 January 2023).

[2] = molecular target: T2, CDK7 (Homo sapiens, UniProt P50613); test: KINOMEscan competition binding assay; conditions: CDK7, 10 µM
T2 construct: purchased DiscoverX Corporation (Lead Hunter Discovery Services, KINOMEscan)
T2 sequence (P50613 whole entry): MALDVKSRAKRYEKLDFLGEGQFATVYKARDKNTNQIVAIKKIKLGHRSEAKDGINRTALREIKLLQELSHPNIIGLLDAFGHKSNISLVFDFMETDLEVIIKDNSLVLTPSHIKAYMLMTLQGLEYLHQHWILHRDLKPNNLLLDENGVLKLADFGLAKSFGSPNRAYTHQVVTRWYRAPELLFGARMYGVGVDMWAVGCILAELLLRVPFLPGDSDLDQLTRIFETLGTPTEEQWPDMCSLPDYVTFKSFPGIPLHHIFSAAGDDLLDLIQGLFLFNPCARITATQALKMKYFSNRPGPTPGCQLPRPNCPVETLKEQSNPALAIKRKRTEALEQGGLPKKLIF
Description: as §1, §2

[3] = molecular target: T3, FLT3 (Homo sapiens, UniProt P36888); test: KINOMEscan competition binding assay; conditions: FLT3, 10 µM
T3 construct: purchased DiscoverX Corporation (Lead Hunter Discovery Services, KINOMEscan)
T3 sequence (P36888 27-993): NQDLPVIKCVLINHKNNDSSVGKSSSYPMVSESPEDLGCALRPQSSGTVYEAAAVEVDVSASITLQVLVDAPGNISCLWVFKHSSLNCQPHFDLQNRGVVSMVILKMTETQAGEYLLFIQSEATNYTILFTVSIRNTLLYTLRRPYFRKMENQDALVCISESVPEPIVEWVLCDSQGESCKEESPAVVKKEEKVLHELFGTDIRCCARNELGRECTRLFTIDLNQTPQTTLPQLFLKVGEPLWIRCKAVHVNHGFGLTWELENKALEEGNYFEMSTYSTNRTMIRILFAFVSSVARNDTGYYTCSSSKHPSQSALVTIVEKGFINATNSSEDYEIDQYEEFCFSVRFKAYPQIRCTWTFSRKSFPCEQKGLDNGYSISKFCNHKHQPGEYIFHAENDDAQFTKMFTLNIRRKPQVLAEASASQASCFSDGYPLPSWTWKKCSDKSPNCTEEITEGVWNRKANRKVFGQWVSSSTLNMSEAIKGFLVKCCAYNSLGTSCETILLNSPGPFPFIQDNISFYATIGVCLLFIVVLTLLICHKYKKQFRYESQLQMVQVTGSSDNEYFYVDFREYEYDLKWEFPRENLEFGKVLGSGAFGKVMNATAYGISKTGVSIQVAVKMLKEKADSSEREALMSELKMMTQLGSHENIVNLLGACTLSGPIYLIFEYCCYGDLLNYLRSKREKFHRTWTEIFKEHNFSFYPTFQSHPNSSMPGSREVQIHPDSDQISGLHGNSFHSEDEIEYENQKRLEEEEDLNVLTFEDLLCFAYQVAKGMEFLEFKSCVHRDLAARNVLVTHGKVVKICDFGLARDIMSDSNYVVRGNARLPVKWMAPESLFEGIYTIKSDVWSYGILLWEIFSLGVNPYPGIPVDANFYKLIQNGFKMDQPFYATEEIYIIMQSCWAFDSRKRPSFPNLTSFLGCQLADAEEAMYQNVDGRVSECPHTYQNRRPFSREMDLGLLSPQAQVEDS
Description: as §1, §2

[4] = molecular target: T4, CDK8 (Homo sapiens, UniProt P49336); test: KINOMEscan competition binding assay; conditions: CDK8, 10 µM
T4 construct: purchased DiscoverX Corporation (Lead Hunter Discovery Services, KINOMEscan)
Description: as §1, §2

[5] = molecular target: T5, KIT (Homo sapiens, UniProt P10721); test: KINOMEscan competition binding assay
T5 construct: purchased DiscoverX Corporation (Lead Hunter Discovery Services, KINOMEscan)
T5 sequence (P10721 26-976): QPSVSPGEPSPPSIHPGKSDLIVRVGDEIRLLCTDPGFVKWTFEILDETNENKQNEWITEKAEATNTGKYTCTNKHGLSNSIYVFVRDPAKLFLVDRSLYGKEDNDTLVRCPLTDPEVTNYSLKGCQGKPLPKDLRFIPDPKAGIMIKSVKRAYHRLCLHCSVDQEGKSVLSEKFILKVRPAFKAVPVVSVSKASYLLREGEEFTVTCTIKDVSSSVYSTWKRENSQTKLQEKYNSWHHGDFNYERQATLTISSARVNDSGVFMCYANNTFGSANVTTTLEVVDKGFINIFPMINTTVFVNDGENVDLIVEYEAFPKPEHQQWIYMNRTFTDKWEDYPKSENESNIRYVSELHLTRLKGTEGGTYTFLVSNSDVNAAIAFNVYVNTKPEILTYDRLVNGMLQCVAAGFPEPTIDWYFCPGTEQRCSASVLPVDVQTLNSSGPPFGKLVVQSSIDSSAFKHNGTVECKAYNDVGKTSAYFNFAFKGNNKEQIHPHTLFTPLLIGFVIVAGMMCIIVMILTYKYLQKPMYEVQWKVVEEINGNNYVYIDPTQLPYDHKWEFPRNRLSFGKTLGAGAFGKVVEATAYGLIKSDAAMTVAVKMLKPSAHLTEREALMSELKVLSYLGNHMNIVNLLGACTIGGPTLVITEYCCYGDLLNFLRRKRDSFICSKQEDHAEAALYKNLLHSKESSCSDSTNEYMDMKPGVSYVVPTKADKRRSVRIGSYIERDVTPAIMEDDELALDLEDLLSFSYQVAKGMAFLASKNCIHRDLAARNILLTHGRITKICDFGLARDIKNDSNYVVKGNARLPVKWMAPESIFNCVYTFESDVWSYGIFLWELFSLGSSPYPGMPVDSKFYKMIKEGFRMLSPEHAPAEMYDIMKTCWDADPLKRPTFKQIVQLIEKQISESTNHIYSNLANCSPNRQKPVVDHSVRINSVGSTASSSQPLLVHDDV
Description: as §1, §2

[6] = molecular target: T6, CDK14 (Homo sapiens, UniProt O94921); test: KINOMEscan competition binding assay; conditions: CDK14, 10 µM
T6 construct: purchased DiscoverX Corporation (Lead Hunter Discovery Services, KINOMEscan)
T6 sequence (O94921 whole entry): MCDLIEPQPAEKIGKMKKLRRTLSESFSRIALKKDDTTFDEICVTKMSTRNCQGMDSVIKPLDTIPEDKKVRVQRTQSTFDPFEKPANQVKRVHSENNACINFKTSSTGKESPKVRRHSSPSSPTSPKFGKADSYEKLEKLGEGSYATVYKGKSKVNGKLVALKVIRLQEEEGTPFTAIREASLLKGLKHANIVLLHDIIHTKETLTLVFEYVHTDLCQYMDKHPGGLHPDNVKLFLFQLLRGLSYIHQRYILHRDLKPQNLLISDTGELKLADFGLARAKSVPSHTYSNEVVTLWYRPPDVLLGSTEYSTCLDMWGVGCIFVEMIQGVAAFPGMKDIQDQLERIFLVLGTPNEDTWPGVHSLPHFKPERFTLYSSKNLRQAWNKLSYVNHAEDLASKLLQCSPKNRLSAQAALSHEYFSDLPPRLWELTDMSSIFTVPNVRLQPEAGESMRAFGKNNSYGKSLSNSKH
Description: as §1, §2

[7] = molecular target: T7, MRCK2 (Homo sapiens, UniProt Q9Y5S2); test: KINOMEscan competition binding assay; conditions: MRCK2, 10 µM
T7 construct: purchased DiscoverX Corporation (Lead Hunter Discovery Services, KINOMEscan)
T7 sequence (Q9Y5S2 whole entry): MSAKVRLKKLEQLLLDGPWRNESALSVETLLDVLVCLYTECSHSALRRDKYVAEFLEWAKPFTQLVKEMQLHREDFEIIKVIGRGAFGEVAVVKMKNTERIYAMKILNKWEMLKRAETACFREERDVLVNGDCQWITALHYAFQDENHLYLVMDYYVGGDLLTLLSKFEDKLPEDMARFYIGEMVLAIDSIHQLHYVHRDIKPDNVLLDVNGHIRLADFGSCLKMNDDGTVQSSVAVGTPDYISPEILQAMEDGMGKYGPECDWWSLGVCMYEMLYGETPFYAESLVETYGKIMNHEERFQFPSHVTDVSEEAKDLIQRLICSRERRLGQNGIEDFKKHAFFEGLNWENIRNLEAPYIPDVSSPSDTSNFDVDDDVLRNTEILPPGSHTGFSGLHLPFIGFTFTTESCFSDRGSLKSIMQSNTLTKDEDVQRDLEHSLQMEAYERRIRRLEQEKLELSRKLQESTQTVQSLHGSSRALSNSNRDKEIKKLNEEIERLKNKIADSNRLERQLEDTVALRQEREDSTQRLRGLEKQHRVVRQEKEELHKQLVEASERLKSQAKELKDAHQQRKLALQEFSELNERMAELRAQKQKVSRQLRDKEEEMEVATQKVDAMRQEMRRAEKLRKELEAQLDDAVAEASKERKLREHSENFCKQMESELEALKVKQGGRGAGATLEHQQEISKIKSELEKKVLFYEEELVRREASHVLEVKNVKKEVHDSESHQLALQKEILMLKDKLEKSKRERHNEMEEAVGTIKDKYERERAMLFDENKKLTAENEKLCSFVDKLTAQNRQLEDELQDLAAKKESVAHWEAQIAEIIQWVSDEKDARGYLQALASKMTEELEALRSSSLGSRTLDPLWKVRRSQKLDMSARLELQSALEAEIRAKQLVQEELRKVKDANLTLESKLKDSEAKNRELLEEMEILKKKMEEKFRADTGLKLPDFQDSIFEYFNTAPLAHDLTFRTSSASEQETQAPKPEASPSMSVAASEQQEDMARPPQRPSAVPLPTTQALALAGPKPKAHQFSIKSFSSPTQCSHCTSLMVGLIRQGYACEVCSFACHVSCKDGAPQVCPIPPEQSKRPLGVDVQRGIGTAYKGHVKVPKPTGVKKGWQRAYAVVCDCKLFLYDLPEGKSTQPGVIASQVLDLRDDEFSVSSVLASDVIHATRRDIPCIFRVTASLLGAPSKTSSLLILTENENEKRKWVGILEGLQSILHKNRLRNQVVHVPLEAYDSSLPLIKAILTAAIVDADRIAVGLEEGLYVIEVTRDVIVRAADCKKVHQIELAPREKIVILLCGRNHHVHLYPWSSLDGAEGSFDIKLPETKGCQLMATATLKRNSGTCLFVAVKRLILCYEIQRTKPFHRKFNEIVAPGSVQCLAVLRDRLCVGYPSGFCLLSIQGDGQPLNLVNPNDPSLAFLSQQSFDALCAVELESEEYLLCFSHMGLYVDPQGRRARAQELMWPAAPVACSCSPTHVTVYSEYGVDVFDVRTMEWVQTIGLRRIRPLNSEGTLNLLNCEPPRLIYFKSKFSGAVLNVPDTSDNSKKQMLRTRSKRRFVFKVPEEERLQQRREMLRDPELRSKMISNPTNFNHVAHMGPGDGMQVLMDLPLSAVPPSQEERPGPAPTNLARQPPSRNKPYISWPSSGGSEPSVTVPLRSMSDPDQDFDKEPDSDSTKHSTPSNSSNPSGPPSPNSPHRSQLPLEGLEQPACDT
Description: as §1, §2

[8] = molecular target: T8, MRCK1 (Homo sapiens, UniProt Q5VT25); test: KINOMEscan competition binding assay; conditions: MRCK1, 10 µM
T8 construct: purchased DiscoverX Corporation (Lead Hunter Discovery Services, KINOMEscan)
Description: as §1, §2

[9] = tested on: A549 cells; test: Western blot of cell cycle regulatory proteins; format: cell-based, human
Procedure: To better understand the anti-proliferative and pro-apoptotic effects of DJ4, expression of key proteins involved in proliferation and apoptosis were determined by a Western blot. A549 cells were treated with 2.5 µM and 10 µM concentrations for 24 h and 48 h. […] We also examined the expression of cyclin D3 and CDK4 (G1/S cell cycle checkpoint kinase).
For protein expression studies, MDA-MB-231 cells were treated with indicated concentrations of DJ4 for 24 h. Additionally, A549 cells were treated for 24 h and 48 h. Cell lysate preparation, protein estimation, and Western blot analysis was performed as per the procedure reported earlier. The blots were probed with cleaved caspase 7 (#9492, Cell Signaling, Danvers, MA, USA), GAPDH (#97166, Cell Signaling, Danvers, MA, USA), β-Actin (#3700, Cell Signaling, Danvers, MA, USA), pErk (#5726, Cell Signaling, Danvers, MA, USA), p21 ^WAF1/CIP1 (#60480, Cell Signaling, Danvers, MA, USA), cyclinD3 (#2936, Cell Signaling, Danvers, MA, USA), CDK4 (#23972, Cell Signaling, Danvers, MA, USA), cleaved PARP (#32563, Cell Signaling, Danvers, MA, USA), pan Erk (#23887, Cell Signaling, Danvers, MA, USA), pMYPT1 (Thr853, # SAB4503944, Millipore, Inc., Burlington, MA, USA) and PCNA (#sc-56, Santa Cruz Biotechnology, Inc., Dallas, TX, USA) antibodies.

[10] = tested on: A549 lung cancer cells; test: Colony forming assay; format: cell-based, human; conditions: then 14 days treatment-free, relative to control
Procedure: Figure 2 DJ4 reduces cell survival and inhibits colony forming ability of the cancer cells. (A) Different NSCLC cells were plated in a 96-well plate to confluence and then treated for 72 h. Cytotoxicity was assessed by MTT assay. The error bars indicate SEM of triplicates. (B) To assess cytotoxicity of DJ4 in breast cancer cells, MDA-MB-231 cells were treated for 24 h with indicated concentrations of DJ4. Percentage of live cells were counted using Muse^TM Live/Dead reagent and analyzed by Muse^TM cell analyzer. Error bars indicate SEM. n = 2. * p < 0.05. (C) DJ4 inhibits colony forming ability of A549 cells treated for 48 h. After a 48-h treatment, cells were seeded with number of cells mentioned in the table and were allowed to grow and form colonies. At the end of 14 days, colonies were stained and counted. Percent surviving fraction was calculated. The figure is the representative of the replicates. (D) The data are summarized in the table and represent the average of three replicates. TEXT PRINTED IN THE PICTURE: (D) DJ4: Surviving Fraction after 14 days (%): 2.3 (Concentration: 2.5μM; Number of cells plated: 2000; SEM: 0.1); Surviving Fraction after 14 days (%): 0.4 (Concentration: 5μM; Number of cells plated: 4000; SEM: 0.0); Surviving Fraction after 14 days (%): 0.1 (Concentration: 10μM; Number of cells plated: 8000; SEM: 0.0)
To further determine the effects of DJ4 on cell proliferation, we performed colony forming assays in A549 lung cancer cells. Forty-eight hours after the treatment with 2.5, 5.0, and 10 µM DJ4, individual cells were re-plated at low seeding density and colony formation was monitored for 14 days. The percent surviving fraction of cells relative to control cells that formed the distinct colonies were 2.3%, 0.4%, and 0.1% at 2.5, 5.0, and 10 µM, respectively, after 14 days of growth in a treatment-free culture medium (Figure 2C,D).

T1 sequence (P50750 whole entry): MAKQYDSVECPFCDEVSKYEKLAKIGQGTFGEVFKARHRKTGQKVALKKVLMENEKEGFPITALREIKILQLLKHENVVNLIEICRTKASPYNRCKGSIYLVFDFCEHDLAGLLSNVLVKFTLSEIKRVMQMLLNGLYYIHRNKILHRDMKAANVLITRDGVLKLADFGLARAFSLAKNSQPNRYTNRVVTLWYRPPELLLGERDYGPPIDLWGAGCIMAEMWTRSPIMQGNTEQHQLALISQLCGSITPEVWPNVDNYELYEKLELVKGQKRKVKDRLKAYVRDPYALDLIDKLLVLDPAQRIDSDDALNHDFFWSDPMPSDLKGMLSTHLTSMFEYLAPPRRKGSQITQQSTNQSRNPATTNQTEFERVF

`O=C1N/C(=N\CCc2ccccc2)S/C1=C/c1c[nH]c2ncccc12` [DJ4] was tested. Which inhibition at 10 µM [1] did it give?
Its inhibition at 10 µM is > 98%.

What about the inhibition at 10 µM [2] of the same compound?
Its inhibition at 10 µM is > 98%.

And the inhibition at 10 µM [3]?
The inhibition at 10 µM was > 98%.

What about the inhibition at 10 µM [4] of the same compound?
Its inhibition at 10 µM is > 98%.

And the inhibition at 10 µM [5]?
The inhibition at 10 µM was > 98%.

And the inhibition at 10 µM [6]?
The inhibition at 10 µM was > 98%.

What about the inhibition at 10 µM [7] of the same compound?
Its inhibition at 10 µM is > 98%.

And the inhibition at 10 µM [8]?
Its inhibition at 10 µM is > 98%.

What about the “activation of Erk1/2 (phospho-Erk; pERK)” value ([9]; A549, 2.5 µM, 24 h) of the same compound?
Its value is “significantly induced activation”.

What about the “expression of CDK4” value ([9]; A549, 2.5 µM, 24 h) of the same compound?
Its value is “upregulated”.

And the “expression of cyclin D3” value ([9]; A549, 2.5 µM, 24 h)?
The value was “upregulated”.

What about the “expression of p21 WAF1/CIP1” value ([9]; A549, 2.5 µM, 24 h) of the same compound?
Its value is “upregulated”.

What about the “expression of p21 WAF1/CIP1, pERK, CDK4, and cyclin D3” value ([9]; A549, 10 µM, 24 h and 48 h) of the same compound?
Its value is “decreased below vehicle treatment levels”.

What about the “Surviving Fraction after 14 days” value ([10]; A549, 2.5 µM for 48 h) of the same compound?
Its value is 2.3%.

What about the “Surviving Fraction after 14 days” value ([10]; A549, 5.0 µM for 48 h) of the same compound?
Its value is 0.4%.

And the “Surviving Fraction after 14 days” value ([10]; A549, 10 µM for 48 h)?
The value was 0.1%.
